pIC50: −log10 of the molar value.
Assays:
lung tissue = settings: saline/ATN-161, no SARS-CoV-2
[1] = in vivo; cited from earlier work
[2] = cancer patients; cited from earlier work
SARS-CoV-2 = settings: 1 h

| Substance | H&E histopathological changes in uninfected mice (lung tissue) | Masson's trichrome histopathological changes in uninfected mice (lung tissue) | tissue distribution [1] | safety in human clinical trials [2] | pIC50 (SARS-CoV-2) |
| --- | --- | --- | --- | --- | --- |
| Ac-PHSCN-NH2 [ATN-161, Ac-PHSCN-NH2] [listing 1 of 2 here] | no histopathological changes in any of the mice | no histopathological changes in any of the mice | high tissue distribution | no dose limiting toxicity | – |
| Ac-PHSCN-NH2 [ATN-161, Ac-PHSCN-NH2] [listing 2 of 2 here] | – | – | – | – | 5.50 |

— patent US20230146939A1, “TREATMENT FOR HUMAN CORONAVIRUS INFECTION” (THE ADMINISTRATORS OF THE TULANE EDUCATIONAL FUND, priority 2020, published 2023)
